Activity calls are given as the source filed them. The rule behind the calls is not given here.
Legend:
[1] = test system: Escherichia coli; assay: Inhibition of Escherichia coli DXR using DOXP as substrate assessed as conversion of NADPH to NADP at 250 uM preincubated for 5 mins measured after 10 mins relative to control
[2] = test system: Plasmodium falciparum; assay: Inhibition of Plasmodium falciparum DXR using DOXP as substrate assessed as conversion of NADPH to NADP at 250 uM preincubated for 5 mins relative to control
[3] = test system: Escherichia coli; assay: Inhibition of Escherichia coli DXR using DOXP as substrate assessed as conversion of NADPH to NADP at 250 uM preincubated for 5 mins relative to control
[4] = test system: Escherichia coli; assay: Binding affinity to Escherichia coli DXR at 20 uM by STD-NMR analysis
[5] = test system: Escherichia coli; assay: Inhibition of Escherichia coli DXR using DOXP as substrate assessed as conversion of NADPH to NADP at 500 uM preincubated for 5 mins
[6] = test system: Escherichia coli; assay: Activation of Escherichia coli DXR using DOXP as substrate assessed as conversion of NADPH to NADP at 250 uM preincubated for 5 mins
[7] = test system: Plasmodium falciparum; assay: Activation of Plasmodium falciparum DXR using DOXP as substrate assessed as conversion of NADPH to NADP at 250 uM preincubated for 5 mins relative to control
[8] = test system: Escherichia coli; assay: Activation of Escherichia coli DXR using DOXP as substrate assessed as conversion of NADPH to NADP at 500 uM preincubated for 5 mins

Structure (SMILES) | inhibition [1] | inhibition [3] | Activity [4] | inhibition [5] | other results
CCOP(=O)(CC(=O)Nc1cccc(CO)c1)OCC | – | 40.4% | – | – | inhibition [2]: 40.7%
CC(=O)c1sc(NC(=O)CCP(=O)(O)O)nc1C | – | – | Active | 0% | –
O=C(CCP(=O)(O)O)Nc1ccccn1 | – | – | Active | 0% | –
CCOP(=O)(CC(=O)Nc1nccs1)OCC | – | – | Active | 28.9% | –
O=C(CCCCP(=O)(O)O)Nc1cccc(Br)c1 | – | – | inactive | – | Activity [6]: Active
CCOP(=O)(CC(=O)NCc1ccco1)OCC | – | – | Active | 67.7% | –
CCOP(=O)(CC(=O)Nc1cccc(Br)c1)OCC | 21.4% | 16.3% | – | – | Activity [7]: Active
CCOP(=O)(CCC(=O)Nc1ccccn1)OCC | – | – | Active | – | Activity [8]: Active
O=C(CP(=O)(O)O)Nc1nccs1 | – | – | Active | 7.4% | –
COc1cccc(NC(=O)CCCCP(=O)(O)O)c1 | – | – | – | – | Activity [6]: Active
O=C(CCCCP(=O)(O)O)Nc1cccc(O)c1 | – | – | inactive | – | Activity [6]: Active
CCOP(=O)(CCCCC(=O)Nc1cccc(O)c1)OCC | – | – | – | – | Activity [6]: Active
CCOP(=O)(CCC(=O)Nc1cccc(OC)c1)OCC | 14.1% | 23.3% | – | – | Activity [7]: Active
CCOP(=O)(CC(=O)Nc1cccc(C#N)c1)OCC | 11.9% | 21.9% | – | – | inhibition [2]: 4.8%
CCOP(=O)(CCC(=O)Nc1nc(C)c(C(C)=O)s1)OCC | – | – | Active | 0.3% | –
N#Cc1cccc(NC(=O)CCCP(=O)(O)O)c1 | – | – | inactive | – | –
O=C(CCP(=O)(O)O)Nc1ccon1 | – | – | Active | 0.2% | –
CCOP(=O)(CC(=O)Nc1cccc(OC)c1)OCC | – | 11% | – | – | Activity [7]: Active

Structure (SMILES) | inhibition [1] | inhibition [3] | Activity [4] | inhibition [5] | other results
O=C(CCP(=O)(O)O)NCc1ccco1 | – | – | Active | 0.3% | –
O=C(CP(=O)(O)O)Nc1ccon1 | – | – | Active | 12.2% | –
O=C(CP(=O)(O)O)NCc1ccco1 | – | – | Active | 30% | –
O=C(CP(=O)(O)O)Nc1ccccn1 | – | – | Active | – | Activity [8]: Active
O=C(CCP(=O)(O)O)Nc1nccs1 | – | – | Active | 0.2% | –
CCOP(=O)(CC(=O)Nc1ccon1)OCC | – | – | Active | 11.7% | –
CCOP(=O)(CC(=O)Nc1cccc(O)c1)OCC | 24.4% | 44.6% | – | – | inhibition [2]: 12%
CCOP(=O)(CCC(=O)Nc1ccon1)OCC | – | – | Active | 0% | –
CCOP(=O)(CCC(=O)Nc1nccs1)OCC | – | – | Active | 0.1% | –
CCOP(=O)(CCC(=O)Nc1cccc(O)c1)OCC | 33.5% | 23.1% | – | – | Activity [7]: Active
CCOP(=O)(CCCCC(=O)Nc1cccc(OC)c1)OCC | – | – | – | – | Activity [6]: Active
CC(=O)c1sc(NC(=O)CP(=O)(O)O)nc1C | – | – | Active | 16.6% | –
CCOP(=O)(CCC(=O)Nc1cccc(CO)c1)OCC | 17.9% | 17.1% | – | – | Activity [7]: Active
CCOP(=O)(CCCC(=O)Nc1cccc(Br)c1)OCC | – | – | – | – | Activity [6]: Active
CCOP(=O)(CCC(=O)NCc1ccco1)OCC | – | – | Active | 0.2% | –
CCOP(=O)(CC(=O)Nc1nc(C)c(C(C)=O)s1)OCC | – | – | Active | 21.6% | –
CCOP(=O)(CC(=O)Nc1ccccn1)OCC | – | – | Active | 58.5% | –

The next lines start with results.

inhibition [1] | inhibition [3] | Structure (SMILES) | Activity [4] | inhibition [5] | other results
0.8% | – | CCOP(=O)(CCCC(=O)Nc1cccc(O)c1)OCC | – | – | –
26.8% | 16% | O=C(CCP(=O)(O)O)Nc1cccc(CO)c1 | – | – | inhibition [2]: 10.9%
0.7% | – | O=C(CCCP(=O)(O)O)Nc1cccc(O)c1 | – | – | –
49.2% | 23.7% | O=C(CCP(=O)(O)O)Nc1cccc(O)c1 | – | – | inhibition [2]: 1.1%
– | 8.7% | COc1cccc(NC(=O)CCP(=O)(O)O)c1 | – | – | Activity [7]: Active; Activity [6]: Active
17.8% | 31.9% | COc1cccc(NC(=O)CP(=O)(O)O)c1 | – | – | inhibition [2]: 40.8%
43.9% | 34.4% | O=C(CP(=O)(O)O)Nc1cccc(O)c1 | – | – | inhibition [2]: 45.2%
20% | 8.2% | N#Cc1cccc(NC(=O)CP(=O)(O)O)c1 | – | – | Activity [7]: Active
26.8% | 22.3% | O=C(CP(=O)(O)O)Nc1cccc(Br)c1 | – | – | inhibition [2]: 42%

Reference: ChEMBL document CHEMBL2396640, “Exploring DOXP-reductoisomerase binding limits using phosphonated N-aryl and N-heteroarylcarboxamides as DXR inhibitors” (Bioorg Med Chem, 2013)
